Laboratory results as given in PMC11142920, “De novo-designed transmembrane proteins bind and regulate a cytokine receptor” (Nature Chemical Biology, 2024).

Key:
mEpoR−GFP1-10 = test: Split GFP complementation with mEpoR−GFP1-10; assay type: cell-based, mouse; conditions: flow cytometry, BaF3 cells
ErbB2−GFP1-10 = test: Split GFP complementation with ErbB2−GFP1-10; assay type: cell-based; conditions: flow cytometry, BaF3 (tTa) cells, 1 pM doxycycline
mEpoR = test: EPO-induced proliferation (growth inhibition) of BaF3/mEpoR cells expressing TM proteins; assay type: cell-based, mouse; conditions: 0.06 U ml^−1 EPO, IL-3-free, 6-8 days; versus empty vector
Protocol: Mouse IL-3-dependent BaF3 and derivative cells were maintained in RPMI-10 medium: RPMI-1640 supplemented with 10% heat-inactivated FBS, 5% WEHI-3B cell-conditioned medium (as the source of IL-3), 4 mM L-glutamine, 0.06 mM β-mercaptoethanol and 1⨯ P-S. BaF3 cells expressing mEpoR, hEpoR and all EpoR mutants and chimeras were generated by infecting BaF3 cells with pMSCV-neo vector containing the desired HA-tagged EpoR gene. BaF3 cells (5 ⨯ 10^5) were washed with PBS and then resuspended in 500 μl of RPMI-10 medium with 4 μg ml^−1 polybrene. […]
For proliferation assays, 2 ⨯ 10^5 BaF3 and derivative cells expressing the appropriate genes were washed in PBS three times to remove IL-3. […] Viable cells were counted 6−8 days after IL-3 removal. […] The statistical significance of differences between control and experimental samples was evaluated by either one-tailed or two-tailed Student’s t-tests with unequal variance, performed using the T.TEST function in Microsoft Excel (2013).
For proliferation assays, BaF3/mEpoR/tTA cells expressing CHAMP proteins were first cultured in 10 ml of RPMI-10/IL-3 medium in the absence of Dox or supplemented with 100 or 200 pg ml^−1 Dox for 48 h. Then, 2 ⨯ 10^5 BaF3 cells were washed in PBS, resuspended in IL-3-free medium supplemented with the same concentration of Dox and 0.06 U ml^−1 human EPO, and counted as described above.

[1] = target: mEpoR-TM2 (isotope-labeled mEpoR TM domain fragment) (mouse); test: SDS-PAGE; mEpoR TM peptide on SDS-PAGE, non-covalent monomer and dimer bands
mEpoR TM domain = conditions: parallel self-interaction; ref [25]–[28]; cited from earlier work
Excerpt: EpoR is a prototypical cytokine receptor whose TM domain contributes to both receptor homodimerization[25]–[27] and conformational coupling upon ligand binding[28],[29], activating the Janus kinase (JAK)−signal transducer and activator of transcription (STAT) pathway. […] In model membranes, designed TM peptides hosting SXXLXXX sequence repeats spontaneously homodimerize, strongly favoring parallel TM helix geometry like that of ...

[2] = target: GFP11−CHAMP-1 (Flag tag, GFP11, GGG linker, CHAMP-1); test: split reporter (BiFC, NanoBiT); split GFP complementation in BaF3 cells co-expressing a GFP1-10 fusion and a GFP11 fusion; mean fluorescence intensity by flow cytometry

MDHLGASLWPQVGSLCLLLAGAAWPVTFIIATVVGVLLFLILVVVVGILGGSGGGGSGGRDHMVLHEYVNAAGIT [ErbB2 TM domain fusion, ErbB2 TM domain construct fused to GFP11 at its c-terminus]
fluorescence in mEpoR−GFP1-10 expressing cells (in words) (mEpoR−GFP1-10): fluorescence was not increased
complementation of ErbB2−GFP1-10 (ErbB2−GFP1-10): could complement ErbB2−GFP1-10

MRLPGAMPALALKGELLLLSLLLLLEPQISQGLVVTPKVVVISAILALVVLTIISLIILIMLWQKKPRYEIRWKVIESVSCPAPRAEAEDSFL [PDGFβR, unrelated platelet-derived growth factor β receptor TM domain protein construct]
inhibition of EPO-induced proliferation (in words) (mEpoR): did not show inhibited proliferation

MDHLGASLWPQVGSLCLLLAGAAWERVQLAHHFSEPEITLIIFGVMAGVIGTILLISYGIRRLIGGSGGGGSGGRDHMVLHEYVNAAGIT [glycophorin A, GlycophorinA TM domain construct fused at its c-terminus to GFP11]
fluorescence in mEpoR−GFP1-10 expressing cells (in words) (mEpoR−GFP1-10): fluorescence was not increased

mEpoR-TM2 (isotope-labeled mEpoR TM domain fragment) (peptide)
stoichiometry N [1]: 2

MDHLGASLWPQVGSLCLLLAGAAWAPPLDPLILTLSLILVLISLLLTVLALLSHRRALKQKIWPGIPSPESEGPYSNPYENSLIPAAEPLPPSYVACS [mEpoR TM domain mimic protein, type I mEpoR TM domain mimic protein expressed in BaF3 cells]
inhibition of EPO-induced proliferation (in words) (mEpoR): did not show inhibited proliferation

B1: mEpoR: mouse erythropoietin receptor (target); TM domain (protein)
chain: APSPSLPDPKFESKAALLASRGSEELLCFTQRLEDLVCFWEEAASSGMDFNYSFSYQLEGESRKSCSLHQAPTVRGSVRFWCSLPTADTSSFVPLELQVTEASGSPRYHRIIHINEVVLLDAPAGLLARRAEEGSHVVLRWLPPPGAPMTTHIRYEVDVSAGNRAGGTQRVEVLEGRTECVLSNLRGGTRYTFAVRARMAEPSFSGFWSAWSEPASLLTASDLDPLILTLSLILVLISLLLTVLALLSHRRTLQQKIWPGIPSPESEFEGLFTTHKGNFQLWLLQRDGCLWWSPGSSFPEDPPAHLEVLSEPRWAVTQAGDPGADDEGPLLEPVGSEHAQDTYLVLDKWLLPRTPCSENLSGPGGSVDPVTMDEASETSSCPSDLASKPRPEGTSPSSFEYTILDPSSQLLCPRALPPELPPTPPHLKYLYLVVSDSGISTDYSSGGSQGVHGDSSDGPYSHPYENSLVPDSEPLHPGYVACS
modifications: left off: HA, end not stated, kept
notes: mouse erythropoietin receptor (target); TM domain
homodimerization of mEpoR TM domains (mEpoR TM domain): only weakly homodimerize

B2: mEpoR−GFP1-10 fusion protein (domain or fragment)
chain: APSPSLPDPKFESKAALLASRGSEELLCFTQRLEDLVCFWEEAASSGMDFNYSFSYQLEGESRKSCSLHQAPTVRGSVRFWCSLPTADTSSFVPLELQVTEASGSPRYHRIIHINEVVLLDAPAGLLARRAEEGSHVVLRWLPPPGAPMTTHIRYEVDVSAGNRAGGTQRVEVLEGRTECVLSNLRGGTRYTFAVRARMAEPSFSGFWSAWSEPASLLTASDLDPLILTLSLI
fold MFI over cells expressing mEpoR−GFP1-10 alone or the CHAMP-1 fusion alone [2]: > 4 fold
